This note sets out measurements from ChEMBL document CHEMBL1156134, “2-Amino-5-aryl-pyridines as selective CB2 agonists: synthesis and investigation of structure-activity relationships” (Bioorg Med Chem Lett, 2009).

Data set [1] concerns the target T1, Cannabinoid receptor 2 (Homo sapiens, UniProt P34972). The data set is described as follows: Agonist activity at human CB2 receptor expressed in yeast cells. The data set is classed as functional, cell-based.
The target in data set [2] is T1, Cannabinoid receptor 2. The data set is described as follows: Agonist activity at human CB2 receptor expressed in yeast cells relative to HU210. Format: functional, cell-based.
For data set [3], the target named is T2, Cannabinoid receptor 1 (Homo sapiens, UniProt P21554). Briefly: Agonist activity at human CB1 receptor expressed in yeast cells. The data set is classed as functional, cell-based.
T2 sequence (P21554 whole entry): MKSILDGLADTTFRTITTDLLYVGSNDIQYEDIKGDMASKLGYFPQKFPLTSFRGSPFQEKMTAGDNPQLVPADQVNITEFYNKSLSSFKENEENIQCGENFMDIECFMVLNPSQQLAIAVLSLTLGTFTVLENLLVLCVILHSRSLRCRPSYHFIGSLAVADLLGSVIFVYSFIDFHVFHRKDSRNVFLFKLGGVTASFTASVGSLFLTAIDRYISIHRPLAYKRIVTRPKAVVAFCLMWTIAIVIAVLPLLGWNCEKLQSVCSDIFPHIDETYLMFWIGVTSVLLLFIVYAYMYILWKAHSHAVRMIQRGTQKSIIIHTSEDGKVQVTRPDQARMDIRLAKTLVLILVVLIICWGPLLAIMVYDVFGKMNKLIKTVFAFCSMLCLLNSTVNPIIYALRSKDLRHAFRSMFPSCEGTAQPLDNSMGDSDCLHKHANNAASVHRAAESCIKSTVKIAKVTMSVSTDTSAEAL
The subject of a further data set is Liver microsomes. The data set is described as follows: Clearance in rat liver microsomes. The data set is classed as ADME, Microsome. For orientation: Liver microsomes are a subcellular fraction often used to study metabolism.
The target of data set [4] is T2, Cannabinoid receptor 1. The data set is described as follows: Agonist activity at human CB1 receptor expressed in yeast cells relative to HU210. The data set is classed as functional, cell-based.

T1 sequence (P34972 whole entry): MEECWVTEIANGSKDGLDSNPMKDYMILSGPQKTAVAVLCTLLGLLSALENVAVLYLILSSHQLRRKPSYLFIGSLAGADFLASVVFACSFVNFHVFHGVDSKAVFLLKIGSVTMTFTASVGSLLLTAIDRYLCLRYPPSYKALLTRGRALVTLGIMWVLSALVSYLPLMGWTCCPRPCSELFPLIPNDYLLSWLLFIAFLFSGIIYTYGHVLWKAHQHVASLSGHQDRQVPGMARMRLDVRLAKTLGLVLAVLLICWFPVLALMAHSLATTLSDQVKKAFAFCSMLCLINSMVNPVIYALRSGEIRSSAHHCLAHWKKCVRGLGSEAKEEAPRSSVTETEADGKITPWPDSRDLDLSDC

As to `FC(F)(F)c1cc(N2CCCCCC2)ncc1-c1cccc(Cl)c1Cl`, the EC50 – broadly, the midpoint of the concentration-response curve – at Cannabinoid receptor 2 [1] is 2.51 µM; on Cannabinoid receptor 1 [3] it was > 31.6 µM. At Cannabinoid receptor 2 [2], this compound yielded an Efficacy of 79%.
In the case of `N#Cc1cc(N2CCCCCC2)ncc1-c1cccc(Cl)c1Cl`, the EC50 on Cannabinoid receptor 2 [1] is 0.1 µM; on Cannabinoid receptor 1 [3], 10 µM. The Efficacy on Cannabinoid receptor 2 [2] came to 86%; on Cannabinoid receptor 1 [4], 13%. The CL in the data set on Liver microsomes was > 50 mL/min/g.
For `Clc1cccc(-c2ccc(N3CCCCCC3)nc2)c1Cl`, in that order: 0.0398 µM, 10 µM, 104%, 4% and 30 mL/min/g.
`Clc1cccc(-c2ccc(N3CCCOCC3)nc2)c1Cl` had an EC50 on Cannabinoid receptor 2 [1] of 0.0631 µM. Moreover, at Cannabinoid receptor 2 [2], the Efficacy came to 87%. The CL with Liver microsomes worked out at 27 mL/min/g.
`O=C(O)c1cc(-c2cccc(Cl)c2Cl)cnc1N1CCCCCC1`: the figures for the EC50 at Cannabinoid receptor 2 [1] and on Cannabinoid receptor 1 [3] were 1.58 µM and > 31.6 µM, respectively. Further, at Cannabinoid receptor 2 [2], the Efficacy stood at 41%.
Compound `O=C1CCCN1c1ccc(-c2cccc(Cl)c2Cl)cn1` had an EC50 at Cannabinoid receptor 2 [1] of 0.251 µM. This compound also registered an Efficacy at Cannabinoid receptor 2 [2] of 59%.
For `Clc1ccccc1-c1ccc(N2CCOCC2)nc1`, in that order: 0.398 µM and 43%.
In the case of `N#Cc1cc(-c2cccc(Cl)c2Cl)cnc1N1CCCCCC1`, the results for the EC50 at Cannabinoid receptor 2 [1] and at Cannabinoid receptor 1 [3] were 3.98 µM and > 31.6 µM, respectively. This compound gave an Efficacy on Cannabinoid receptor 2 [2] of 41%.
With `Cc1cccnc1-c1ccc(N2CCCCCC2)nc1`, it took 0.794 µM to reach a half-maximal effect on Cannabinoid receptor 2 [1] (EC50). At Cannabinoid receptor 2 [2], the Efficacy came to 86%.
`Clc1cccc(-c2ccc(N3CCOCC3)nc2)c1` gave an EC50 at Cannabinoid receptor 2 [1] of 1 µM. This compound gave an Efficacy on Cannabinoid receptor 2 [2] of 20%.
Compound `CCCCNc1ccc(-c2cccc(Cl)c2Cl)cn1` gave an EC50 at Cannabinoid receptor 2 [1] of 0.0794 µM. This compound also yielded an Efficacy on Cannabinoid receptor 2 [2] of 88%.
For the compound `Clc1cccc(-c2ccc(N3CCOCC3)nc2)c1Cl`, the EC50 on Cannabinoid receptor 2 [1] is 0.0794 µM. On Cannabinoid receptor 2 [2], this compound gave an Efficacy of 88%. The CL in the data set with Liver microsomes turned out to be 9.5 mL/min/g.
`Clc1cnc(-c2ccc(N3CCCCCC3)nc2)c(Cl)c1` showed an EC50 at Cannabinoid receptor 2 [1] of 0.316 µM. On Cannabinoid receptor 2 [2], this compound returned an Efficacy of 100%.
Regarding `N#Cc1cccnc1-c1ccc(N2CCCCCC2)nc1`, at Cannabinoid receptor 2 [1], it took 0.398 µM to reach a half-maximal effect (EC50). At Cannabinoid receptor 2 [2], the Efficacy was 75%.
`Cc1ccc(N)c(-c2ccc(N3CCCCCC3)nc2)n1` gave an EC50 at Cannabinoid receptor 2 [1] of 0.126 µM. Further, the Efficacy at Cannabinoid receptor 2 [2] came out at 86%.
For `Clc1ccc(Cl)c(-c2ccc(N3CCOCC3)nc2)c1`, in that order: 0.631 µM and 25%.
With `c1cc2occc2c(-c2ccc(N3CCCCCC3)nc2)n1`, a half-maximal effect at Cannabinoid receptor 2 [1] (EC50) was put at 0.0631 µM. At Cannabinoid receptor 2 [2], this compound yielded an Efficacy of 80%. The CL with Liver microsomes is > 50 mL/min/g.
`Fc1cccc(-c2ccc(N3CCOCC3)nc2)c1F` showed an EC50 at Cannabinoid receptor 2 [1] of 0.251 µM. Further, the Efficacy on Cannabinoid receptor 2 [2] was found to be 58%.
In the same order, the values of `Cc1c(Cl)cccc1-c1ccc(N2CCOCC2)nc1` are 0.501 µM and 73%.
For `O=C1CCC(=O)N1c1ccc(-c2cccc(Cl)c2Cl)cn1`, in that order: 3.98 µM and 19%.
On Cannabinoid receptor 2 [1], `Clc1ccc(-c2ccc(N3CCCCCC3)nc2)nc1` had an EC50 of 0.1 µM. For the same compound, the Efficacy at Cannabinoid receptor 2 [2] turned out to be 101%. In addition, the CL in the data set on Liver microsomes is 13 mL/min/g.
For `CN(C)C(=O)c1cc(-c2cccc(Cl)c2Cl)cnc1N1CCCCCC1`, the EC50 on Cannabinoid receptor 2 [1] was 0.794 µM; on Cannabinoid receptor 1 [3] it was > 31.6 µM. On Cannabinoid receptor 2 [2], the Efficacy worked out at 37%.
In the same order, the values of `FC(F)(F)c1cc(-c2cccc(Cl)c2Cl)cnc1N1CCCCCC1` are 6.31 µM, > 31.6 µM and 12%.
`Cc1cnc(-c2ccc(N3CCCCCC3)nc2)c(C)c1` had an EC50 on Cannabinoid receptor 2 [1] of 1.26 µM. This compound registered an Efficacy on Cannabinoid receptor 2 [2] of 102%.
In the case of `Clc1ccc(-c2ccc(N3CCOCC3)nc2)cc1Cl`, the EC50 at Cannabinoid receptor 2 [1] is 3.98 µM. On Cannabinoid receptor 2 [2], this compound returned an Efficacy of 11%.
As for `Clc1ccc(-c2ccc(N3CCOCC3)nc2)c(Cl)c1`, the 50% effective concentration (EC50) at Cannabinoid receptor 2 [1] is > 31.6 µM.
On Cannabinoid receptor 2 [1], `Clc1cccc(-c2ccc(N3CCSCC3)nc2)c1Cl` gave an EC50 of 0.158 µM. On Cannabinoid receptor 2 [2], this compound gave an Efficacy of 93%.
In the same order, the values of `c1ccc(-c2ccc(N3CCCCCC3)nc2)nc1` are 10 µM and 29%.
As to `CC1CC(C)CN(c2ccc(-c3cccc(Cl)c3Cl)cn2)C1` (stereo not given), the EC50 at Cannabinoid receptor 2 [1] is 0.501 µM. This compound also yielded an Efficacy at Cannabinoid receptor 2 [2] of 73%.
In the same order, the values of `Nc1cccnc1-c1ccc(N2CCCCCC2)nc1` are 1 µM and 91%.
For `Fc1ccc(-c2ccc(N3CCOCC3)nc2)c(F)c1`, the EC50 at Cannabinoid receptor 2 [1] was > 31.6 µM.
As to `O=C(c1cc(-c2cccc(Cl)c2Cl)cnc1N1CCCCCC1)N1CCOCC1`, the EC50 at Cannabinoid receptor 2 [1] is 0.0794 µM; at Cannabinoid receptor 1 [3] it was 10 µM. The values for the Efficacy on Cannabinoid receptor 2 [2] and on Cannabinoid receptor 1 [4] were 67% and 0.19%, respectively. In addition, the CL in the data set with Liver microsomes is > 50 mL/min/g.
The compound `C[C@@H]1CC[C@H](C)N1c1ccc(-c2cccc(Cl)c2Cl)cn1` showed an EC50 at Cannabinoid receptor 2 [1] of 0.251 µM. Besides, the Efficacy at Cannabinoid receptor 2 [2] came out at 37%. In addition, in the data set on Liver microsomes, the CL was found to be 11 mL/min/g.
As for `Clc1cccnc1-c1ccc(N2CCCCCC2)nc1`, the EC50 at Cannabinoid receptor 2 [1] is 0.501 µM. At Cannabinoid receptor 2 [2], this compound yielded an Efficacy of 103%.
